“Also recorded” adds a separate entry of the source.
Key:
[1] = test system: ovariectomized Wistar rats with osteoporosis; experiment: resistance to compression of the 5th lumbar vertebra, ovariectomized osteoporotic rat model; assay type: in vivo, Wistar rats (Rattus norvegicus); settings: 20-50 μg/kg i.p. daily for 90 days, started 5 months after ovariectomy; end of treatment
Protocol: FIG. 12 corresponds to a graph showing the resistance to compression of the vertebral body of the 5th lumbar vertebra obtained from Wistar rats at the end of the 90-day experimental period, 5 months after ovariectomy. Resistance Tests were performed using an Inströn Universal Testing Machine (mod. 5567) in the body of the 5th lumbar vertebra compressed at a speed of 1 mm/min up to achieve sample fracture. The exerted force is expressed in N/mm^2. […].
(§1) We used 48 female rats of the Wistar strain, 3 months of age, with a weight of 250±20 gr. The animals were acclimated for 14 days at an ambient temperature of 22° C. with a photoperiod of 12 hours and relative humidity of 50%; food and water were ad libitum. The rats were sedated with acepromazine maleate (Relax 0.5 g/100 ml) at a dose of 20 μg/Kg of weight and as general anesthetic, tiletamine and zolazepam were used at a concentration of 25 mg/kg of weight.
Anesthetic maintenance was performed with constant flow of isoflurane. Once the rats were anesthetized we proceeded to perform the bilateral ovariectomy procedure for what the anesthetized rat was placed in lateral decubitus and shaved from the last rib forming a rectangle of approximately 4×3 cm. […] The 5th dorsal vertebra of the rats was analyzed by means of computed micro tomography (μCT) prior to euthanasia with CO2 on day 90 of treatment. […]

[2] = test system: Human Osteoblasts derived from alveolar bone; experiment: MTT cytotoxicity and cell proliferation assay; assay type: cell-based; settings: 5 μg/ml, 4 days, medium with 0.5% fetal bovine serum
Protocol: The cytotoxic effect and the effect on cell proliferation was assessed by means of the MTT colorimetric assay (tetrazolium) [3-(4,5-dimethylthazol-2-yl)-2,5-diphenyl tetrazoliumbromide], during 1, 2, 3 and 4 days. Human Osteoblasts derived from alveolar bone were planted at a density of 1×10^4 in plates of 96 wells. The cells were treated with the peptides (independently) for 4 days with concentrations of 1, 3 and 5 μg/ml of each of the peptides. The medium was replaced daily, and the peptides administered in the same way. The controls used were medium with fetal bovine serum at 10% (positive control) and medium with fetal bovine serum at 0.5% (negative control.) the peptides were administered at the various concentrations contained in the medium at 0.5%. At the end of each day of treatment, 10 μL of MTT (3-(4,5-dimethylthiazol-2-yl)-2,5-diphenyltetrazolium bromide) solution (5 mg/mL) was added to the wells and incubated for 3 hours. At the end the supernatant was removed and extraction was carried out by means of DMSO for 1 hour at 37° C. The optical density of the supernatant was read in a reader for ELISA at 570 nm. The optical density reflects the number of living cells present in the culture. […] The peptide […] (SEQ ID NO: 2) at a 5 μg/ml concentration promotes cell proliferation to a 92% with respect to the positive control (10% fetal bovine serum) (B).

[3] = test system: ovariectomized Wistar rats with osteoporosis; experiment: bone microarchitecture by histology (Masson's trichrome) and μCT, ovariectomized osteoporotic rat model; assay type: in vivo, Wistar rats (Rattus norvegicus); settings: 20-50 μg/kg i.p. daily 90 days; for μCT three-dimensional reconstruction of 5th lumbar vertebra / histology of femur epiphysis microarchitecture: 5 months after ovariectomy; for histology of femur epiphysis microarchitecture: Masson's trichrome; for histology of the body of the 5th lumbar vertebra: transverse and sagittal planes
Protocol: In FIGS. 5 and 6 histological sections of 5 μm thick and stained with Masson's Trichromic stain may be observed in which the microarchitecture of the epiphysis of the femur of the Wistar rats is analyzed in detail. Letter (A) of both figures corresponds to the group with no treatment which is the healthy control group. In the histological section stained with Masson's Trichromic stain, normal microarchitecture of the femoral epiphysis is observed with the cancellous bone and medullar spaces filled with bone marrow and bone occupying inter-medullar spaces. The epiphyseal plate and articular cartilage are also observed. […] Treatment with the vehicle lasted 90 days. […] These spaces have variable sizes. Articular cartilage and epiphyseal plate are also noted. […] Microphotography showing the microarchitecture of the femur epiphysis of Wistar rats. […] Articular cartilage and epiphyseal plate are also observed.
In FIGS. 7 and 8, microphotographs of histological sections of 5 μm thick of the 5th lumbar vertebra in the transverse and sagittal plane stained with Masson's Trichromic stain. Panel (A) of FIGS. 7 and 8 corresponds to the body of the 5th lumbar vertebra in the transverse (a) and sagittal (a′) planes of normal Wistar rats where cortical bone, bone trabeculate and spaces filled with bone marrow may be observed. Panel (B) of FIGS. 7 and 8 corresponds to the body of the 5th lumbar vertebra in the transverse (b) and sagittal (b′) planes of osteoporotic Wistar rats treated with physiological saline solution where cortical bone and bone trabeculate are observed with lesser width than the one of healthy Wistar rats. Medullar spaces are also observed and they are filled with fatty tissue with larger areas than those found in healthy controls.
as §1
Anesthetic maintenance was performed with constant flow of isoflurane. Once the rats were anesthetized we proceeded to perform the bilateral ovariectomy procedure for what the anesthetized rat was placed in lateral decubitus and shaved from the last rib forming a rectangle of approximately 4×3 cm. This area is disinfected with an electrolyzed super oxidant solution with neutral pH (Veteribac). Then a linear incision of approximately 2 cm up was performed with a scalpel to reach the muscle and expose the abdominal cavity. With extreme care, the cervix was located and identified. The cervix was ligated exactly on its middle portion with 6/0 polyglycolic acid sutures and subsequently the ovaries were eliminated with a scalpel. It was sutured by planes (abdominal muscles and skin) with 4/0 polyglycolic acid sutures and finally, the surgical area was cleaned with hydrogen peroxide. The rats were maintained in vivarium conditions during 5 months with 12 hours of light and 12 hours of darkness, at an average temperature of 22° C. with food and water ad libitum. […] Once this period concluded, 32 ovariectomized rats were divided into 4 groups of 8 rats each. […] The control group of osteoporotic rats […] was treated with physiological saline solution (pH 7.4) for 90 days. The healthy control group (16) rats received no treatment at all. Blood was obtained from all groups at the beginning and end of treatment (90 days). The 5th dorsal vertebra of the rats was analyzed by means of computed micro tomography (μCT) prior to euthanasia with CO2 on day 90 of treatment. The femur and 5th dorsal vertebrae were obtained, fixed in 10% paraformaldehyde and embedded in paraffin. […]

[4] = test system: critical-size calvarial defect in Wistar rats; experiment: regeneration of critical-size calvarial defect with peptide in gelatin sponge scaffold; assay type: in vivo; settings: 20-50 μg peptide per gelatin sponge (Gelfoam) disk, 9 mm defect, after 16 weeks
Text: These peptides have been artificially synthesized and then combined with a three-dimensional scaffold made of gelatin (gelatin sponge), thus it was used for regeneration of critical size bone defects in an animal model: two groups of 14 male Wistar rats of approximately 250±20 grams of weight were used. Anesthesia of the rats was achieved through intraperitoneal injection of ketamine. The critical size defect was done by performing a 3 cm incision in the calvarial bone and then lifting a mucoperiostial flap. Subsequently, with a 9 mm trephine, a defect was created in the rat's calvarial bone. In the experimental group the formulation was introduced. It consisted of a 9 mm-diameter, porous, three-dimensional, gelatin-based (Gelfoam) disk containing the peptide at a concentration of 20-50 μg/disk. Previously, the dimensional scaffold (gelatin sponge) was incubated with a concentration of the corresponding peptide at 20-50 μg/disk of gelatin sponge and was vacuum dried. Control animals were treated only with a disk of gelatin sponge and a vehicle for re-suspension of the peptide (phosphate buffer pH 7.4) and another group remained without treatment. Blood supply is ensured at the surgical site. The operation site was sealed with Satin S-100, which consists primarily in gelatin. At the end of 16 weeks, the tissues were fixed with 10% formaldehyde and embedded in paraffin. […]

[5] = biodistribution of peptide marked with pertechnetate (99mTc); assay type: in vivo, Wistar rats
Protocol: To determine the bio distribution of the peptides object of this invention, they were marked using technetium in the form of pertechnetate (TcO4−). In order to perform the marking, a working solution which contained: 40 ug of the peptides object of this invention, 50 ul of tartrate (2 mg/ml of acetate buffer pH5), 10 μl of SnCl2 (2 mg/ml 0.1 N HCl), 50 μl of gentisic acid (1 mg/ml) and 50 μl of 99m Tc—Na TCO4− (5 mCi) was prepared. Male Wistar rats of 250 g of weight which were at a temperature of 22° C. with a photoperiod of 12 hours and relative humidity at 50% were used. Food and water was ad libitum. To assess bio distribution, groups of three rats were formed and injected intraperitoneally with 40 μl of the marked peptide. They were sacrificed by an overdose of anesthetic at 30’, 1, 3, 6 and 24 hours. Blood samples from the heart, lung, liver, spleen, kidneys, stomach, small intestine, large intestine, muscle, bone, thyroid, brain and tooth were collected. These organs were weighed on an analytical balance and subsequently placed in a NaI(TI) solid scintillation counter to detect the activity of each one of the organs. With this procedure, the percentage of the injected dose per gram of tissue (% ID/g) was obtained.

[6] = test system: ovariectomized Wistar rats with osteoporosis; experiment: histology of liver, kidney, heart, lung, brain, spleen, muscle after 90 days of peptide administration; assay type: in vivo, Wistar rats (Rattus norvegicus); settings: 20-50 μg/kg i.p. for 90 days
Protocol: The control tissues in Panel (A) correspond to: normal tissues: L=liver, K=kidney, H=heart, Lu=lung, B=brain, M=muscle, S=spleen. Panel B) tissues of Wistar rats with osteoporosis treated with the pharmaceutical formulations object of this invention; L=liver, K=kidney, H=heart, Lu=lung, B=brain, S=Spleen M=muscle. […] This means that the synthetic peptides are harmless drugs for osteoporosis treatment, producing no adverse or secondary reactions at cellular or tissue level.

Row | Substance | resistance to compression of 5th lumbar vertebra, difference compared to healthy control [1] [%] | cell proliferation with regard to the positive control (10% fetal bovine serum) [2] [%] | μCT three-dimensional reconstruction of 5th lumbar vertebra [3] | histology of femur epiphysis microarchitecture [3] | histology of the body of the 5th lumbar vertebra [3] | filling of the critical-size calvarial defect with bone [4] [%] | percentage of injected dose per gram of tissue (% ID/g) ([5]; bone, 30′) [%] | percentage of injected dose per gram of tissue (% ID/g) ([5]; bone, 1 hour) [%] | percentage of injected dose per gram of tissue (% ID/g) ([5]; bone, 24 hours) [%] | percentage of injected dose per gram of tissue (% ID/g) ([5]; kidney, 1 hour) [%] | percentage of injected dose per gram of tissue (% ID/g) ([5]; kidney, 3 hours) [%] | percentage of injected dose per gram of tissue (% ID/g) ([5]; kidney, 6 hours) [%] | percentage of injected dose per gram of tissue (% ID/g) ([5]; kidney, 24 hours) [%] | percentage of injected dose per gram of tissue (% ID/g) ([5]; large intestine, 30′ after i.p. injection) [%] | percentage of injected dose per gram of tissue (% ID/g) ([5]; large intestine, 24 hours) [%] | percentage of injected dose per gram of tissue (% ID/g) ([5]; liver, 1 hour) [%] | percentage of injected dose per gram of tissue (% ID/g) ([5]; liver, 24 hours) [%] | histological alteration of liver, kidney, heart, lung, brain, spleen, muscle [6]
1 | AVIFM | 2 | 82 | cancellous bone is present in almost the entire vertebral body | bone trabeculae forms a network structure similar to the microarchitecture of healthy control group; also recorded: full medullar spaces without evidence of osteoporotic spaces and with normal bone microarchitecture | cortical bone is observed similar to that of healthy Wistar rats | 100 | – | – | – | – | – | – | – | – | – | – | – | –
2 | MGTSSTDSQQAQHRRCSTSN | 19 | 92 | cancellous bone is present in almost the entire vertebral body | bone trabeculae forms a network structure similar to the microarchitecture of healthy control group; also recorded: full medullar spaces without evidence of osteoporotic spaces and with normal bone microarchitecture | cortical bone is observed similar to that of healthy Wistar rats | 100 | 1.3 | 1.4 | 0.4 | 1.6 | 2.6 | 1.3 | 0.9 | 3.6 | 0.006 | 3.4 | 0.2 | no histological feature that indicates that peptide administration in physiological saline solution causes microscopic alteration in these tissues
